Earlier results, collected in the PKSmart pharmacokinetics tables (Seal et al. 2025).

Assay: Lombardo, Berellini, Obach 2018, Drug Metab Dispos 46:1466, doi 10.1124/dmd.118.082966
Settings: human; for MRT / Vd / clearance / half-life: in vivo, iv; for fraction unbound: plasma

SMILES	MRT	Vd	clearance	half-life	fraction unbound
O=C(/C=C/c1ccc(O)c(O)c1)O[C@@H]1C[C@](OC(=O)/C=C/c2ccc(O)c(O)c2)(C(=O)O)C[C@@H](O)[C@H]1O	1.5 h	0.79 L/kg	8.7 mL/min/kg	1.37 h	
C=C1CC[C@@H]2[C@](C)(COC(=O)CCC(=O)O)[C@H](OC(=O)CCC(=O)O)CC[C@@]2(C)[C@@H]1/C=C/C1=CCOC1=O	1 h	0.13 L/kg	2 mL/min/kg	1.9 h	
C#C[C@@]1(O)[C@@H](CO)O[C@H](n2ccc(N)nc2=O)[C@@H]1O	11.7 h	1.1 L/kg	1.6 mL/min/kg	10.9 h	
CC(C)C(=O)OCC(=O)[C@]12O[C@@H](C3CCCCC3)O[C@@H]1C[C@@H]1[C@@H]3CC=C4CC(=O)C=C[C@]4(C)[C@H]3[C@@H](O)C[C@@]12C	1.45 h	2.9 L/kg	33.3 mL/min/kg	1.04 h	0.01
COc1ccccc1OCCNCC(O)COc1cccc2[nH]c3ccccc3c12 (centres undefined)	2.8 h	1.3 L/kg	7.8 mL/min/kg	2.4 h	
C[C@H]1O[C@@H](O[C@H]2[C@@H](O)C[C@H](O[C@H]3[C@@H](O)C[C@H](O[C@H]4CC[C@@]5(C)[C@H](CC[C@@H]6[C@@H]5CC[C@]5(C)[C@@H](C7=CC(=O)OC7)CC[C@]65O)C4)O[C@@H]3C)O[C@@H]2C)C[C@H](O)[C@@H]1O	170 h	0.44 L/kg	0.043 mL/min/kg		0.066
C=C1C=CC=C(C)[C@H](O)[C@@H](C)[C@@H](O)[C@@H](C)[C@H](OC(C)=O)[C@H](C)[C@@H](OC)/C=C/O[C@@]2(C)Oc3c(C)c(O)c4c(O)c(c5c(c4c3C2=O)NC2(CCN(CC(C)C)CC2)N5)NC1=O	65 h	9.3 L/kg	2.4 mL/min/kg	37 h	
CC#CCn1c(N2CCC[C@@H](N)C2)nc2c1c(=O)n(Cc1nc(C)c3ccccc3n1)c(=O)n2C	140 h	16 L/kg	1.9 mL/min/kg	129 h	
C[C@@]1(Cn2ccnn2)C(C(=O)O)N2C(=O)C[C@H]2S1(=O)=O (some centres undefined)	0.89 h	0.26 L/kg	4.81 mL/min/kg	0.97 h	0.7
OC[C@@H]1O[C@@H](n2cnc3c2N=CNC[C@H]3O)C[C@H]1O	6 h	0.59 L/kg	1.63 mL/min/kg	5.3 h	
Cn1c(=O)c2nc[nH]c2n(C)c1=O				7.2 h	
O=C(O[C@H]1CN2CCC1CC2)N1CCc2ccccc2[C@@H]1c1ccccc1	65 h	8.2 L/kg		52 h	
CN(C)[C@@H]1C(O)=C(C(N)=O)C(=O)[C@@]2(O)C(O)=C3C(=O)c4c(O)ccc(Cl)c4[C@@H](O)[C@H]3C[C@@H]12	17 h	1.3 L/kg	1.1 mL/min/kg	12 h	0.59
CC(=O)OCC1=C(C(=O)O)N2C(=O)C(NC(=O)CSc3ccncc3)[C@H]2SC1 (some centres undefined)	0.8 h	0.13 L/kg	2.7 mL/min/kg	1.2 h	0.55
Nc1nc(=O)c2c([nH]1)NCC(CNc1ccc(C(=O)NC(CCC(=O)O)C(=O)O)cc1)N2C=O (centres undefined)	0.8 h	0.25 L/kg	5.8 mL/min/kg	1.3 h	
CN[C@@H]1CCc2[nH]c3ccc(C(N)=O)cc3c2C1	22 h	3.6 L/kg	2.5 mL/min/kg	24 h	
CCN(CC)CCS(=O)(=O)[C@@H]1CCN2C(=O)c3coc(n3)CC(=O)C[C@H](O)/C=C(C)/C=C\CNC(=O)/C=C/[C@@H](C)[C@H](C(C)C)OC(=O)C12 (some centres undefined)	0.41 h	0.39 L/kg	16 mL/min/kg	0.74 h	0.82
CCNC(=O)C1C[C@@H](n2ccc3c(N[C@H](CC)Cc4sccc4Cl)ncnc32)[C@H](O)[C@@H]1O (some centres undefined)	1.18 h	0.84 L/kg	12 mL/min/kg	1.33 h	0.03
CNCCCC12CCC(c3ccccc31)c1ccccc12	54 h	45 L/kg	14 mL/min/kg	51 h	0.11
CC1(C)S[C@@H]2C(NC(=O)C(NC(=O)N3CCNC3=O)c3ccccc3)C(=O)N2C1C(=O)O (some centres undefined)	1.7 h	0.26 L/kg	2.5 mL/min/kg	1.2 h	0.65
CN(C)[C@@H]1C(O)=C(C(=O)NCN2CCCC2)C(=O)[C@@]2(O)C(O)=C3C(=O)c4c(O)cccc4[C@@](C)(O)[C@H]3C[C@@H]12	9.3 h	0.54 L/kg	0.97 mL/min/kg	8.8 h	0.5
CC(C)(O)c1ccccc1CC[C@@H](SCC1(CC(=O)O)CC1)c1cccc(/C=C/c2ccc3ccc(Cl)cc3n2)c1	3.8 h	0.15 L/kg	0.68 mL/min/kg	5 h	
NC(=O)N1c2ccccc2CC(O)c2ccccc21 (centres undefined)	13.6 h	0.72 L/kg	0.88 mL/min/kg	9.8 h	0.7
COc1cc([S+](C)O)ccc1-c1nc2ncccc2[n-]1 (centres undefined)	1 h	0.62 L/kg	10 mL/min/kg	0.8 h	0.41
O=C(O[C@H]1CC2CC[C@@H](C1)[N+]21CCCC1)C(O)(c1ccccc1)c1ccccc1	6.1 h	5.1 L/kg	13.9 mL/min/kg	5 h	0.33
C[C@]12CC[C@@H]3c4ccc([O-])cc4C[C@H](CCCCCCCCC[S+](O)CCCC(F)(F)C(F)(F)F)C3[C@@H]1CC[C@@H]2O (some centres undefined)	5.86 h	4.15 L/kg	11.8 mL/min/kg	16 h	0.01
c1cc2c(c(N3CCNCC3)c1)OCCO2	10.5 h	3.6 L/kg	8 mL/min/kg	8.2 h	
C/C=C/c1cc(OC)c(OC)cc1OC	1.9 h	1 L/kg	8.8 mL/min/kg	3.7 h	
COc1c(-c2ccc3cc(NS(C)(=O)=O)ccc3c2)cc(-n2ccc(=O)[nH]c2=O)cc1C(C)(C)C		2.13 L/kg		5.7 h	0.005
C=C[C@@H]1C[C@]1(NC(=O)C1C[C@@H](Oc2ncc(OC)c3ccc(Cl)cc23)CN1C(=O)C(NC(=O)OC(C)(C)C)C(C)(C)C)C(=O)NS(=O)(=O)C1CC1 (some centres undefined)	3.92 h	2.77 L/kg	11.8 mL/min/kg	20 h	0.012
